Measured values taken from US10757941B2, “Microbiocidal oxadiazole derivatives” (SYNGENTA PARTICIPATIONS AG, priority 2016, dated 2020).

How the values were obtained:
[1] = system: Glomerella lagenarium (Colletotrichum lagenarium); experiment: Fungicidal activity against Glomerella lagenarium (Colletotrichum lagenarium) liquid culture / cucumber / preventative (anthracnose); assay type: cell-based; details: Colletotrichum orbiculare; 20 ppm in the applied formulation; liquid culture in PDB, 24° C.; inhibition of growth measured photometrically 3 to 4 days after application; compared to untreated; read-out: disease control
Protocol: Mycelia fragments or conidia suspensions of a fungus prepared either freshly from liquid cultures of the fungus or from cryogenic storage, are directly mixed into nutrient broth. DMSO solutions of the test compound (max. 10 mg/ml) are diluted with 0.025% Tween20 by a factor of 50 and 10 μl of this solution is pipetted into a microtiter plate (96-well format). The nutrient broth containing the fungal spores/mycelia fragments is then added to give an end concentration of the tested compound. The test plates are incubated in the dark at 24° C. and 96% relative humidity. The inhibition of fungal growth is determined photometrically after 2 to 7 days, depending on the pathosystem, and percent antifungal activity relative to the untreated check is calculated. Example 4: Fungicidal Activity Against Glomerella lagenarium (Colletotrichum lagenarium) Liquid Culture/Cucumber/Preventative (Anthracnose) Conidia of the fungus from cryogenic storage are directly mixed into nutrient broth (PDB—potato dextrose broth). After placing a (DMSO) solution of test compound into a microtiter plate (96-well format), the nutrient broth containing the fungal spores is added. The test plates are incubated at 24° C. and the inhibition of growth is measured photometrically 3 to 4 days after application. The following compounds at 20 ppm in the applied formulation give at least 80% disease control in this test when compared to untreated control under the same conditions, which show extensive disease development.

Uromyces viciae-fabael = experiment: Fungicidal activity against Uromyces viciae-fabae / field bean / leaf disc preventative (faba-bean rust); assay type: in vivo; details: foliar, 288 h, 100 ppm in the applied formulation, field bean leaf discs, preventative (inoculated two hours after application), assessed 12 days after application, compared to untreated, read-out: disease control
Protocol: Leaf disks or leaf segments of various plant species are cut from plants grown in a greenhouse. The cut leaf disks or segments are placed in multiwell plates (24-well format) onto water agar. The leaf disks are sprayed with a test solution before (preventative) or after (curative) inoculation. Compounds to be tested are prepared as DMSO solutions (max. 10 mg/ml) which are diluted to the appropriate concentration with 0.025% Tween20 just before spraying. The inoculated leaf disks or segments are incubated under defined conditions (temperature, relative humidity, light, etc.) according to the respective test system. A single evaluation of disease level is carried out 3 to 14 days after inoculation, depending on the pathosystem. Percent disease control relative to the untreated check leaf disks or segments is then calculated. Example 5: Fungicidal Activity Against Uromyces viciae-fabael Field Bean/Leaf Disc Preventative (Faba-Bean Rust) Field bean leaf discs are placed on water agar in multiwell plates (96-well format) and 10 μl of the formulated test compound diluted in acetone and a spreader pipetted onto the leaf disc. Two hours after application leaf discs are inoculated by spraying a spore suspension on the lower leaf surface. The leaf discs are incubated in a climate cabinet at 22° C. with 18 hour day and 70% relative humidity. The activity of a compound is assessed as percent disease control compared to untreated when an appropriate level of disease damage appears in untreated check leaf disks (12 days after application). The following compounds at 100 ppm in the applied formulation give at least 80% disease control in this test when compared to untreated control leaf discs under the same conditions, which show extensive disease development.

[2] = system: Puccinia recondita f. Sp. Tritici; experiment: Fungicidal activity against Puccinia recondita f. sp. tritici / wheat / leaf disc curative (brown rust); assay type: in vivo; details: foliar, 200 ppm in the applied formulation, wheat leaf segments cv. Kanzler, curative (applied 1 day after inoculation), assessed 6 to 8 days after application, compared to untreated, read-out: disease control
Protocol: Leaf disks or leaf segments of various plant species are cut from plants grown in a greenhouse. The cut leaf disks or segments are placed in multiwell plates (24-well format) onto water agar. The leaf disks are sprayed with a test solution before (preventative) or after (curative) inoculation. Compounds to be tested are prepared as DMSO solutions (max. 10 mg/ml) which are diluted to the appropriate concentration with 0.025% Tween20 just before spraying. The inoculated leaf disks or segments are incubated under defined conditions (temperature, relative humidity, light, etc.) according to the respective test system. A single evaluation of disease level is carried out 3 to 14 days after inoculation, depending on the pathosystem. Percent disease control relative to the untreated check leaf disks or segments is then calculated. Example 2: Fungicidal Activity Against Puccinia recondita f. Sp. Tritici/Wheat/Leaf Disc Curative (Brown Rust) Wheat leaf segments cv. Kanzler are placed on agar in multiwell plates (24-well format). The leaf segments are then inoculated with a spore suspension of the fungus. Plates were stored in darkness at 19° C. and 75% relative humidity. The formulated test compound diluted in water was applied 1 day after inoculation. The leaf segments were incubated at 19° C. and 75% relative humidity under a light regime of 12 hours light/12 hours darkness in a climate cabinet and the activity of a compound was assessed as percent disease control compared to untreated when an appropriate level of disease damage appears in untreated check leaf segments (6 to 8 days after application). The following compounds at 200 ppm in the applied formulation give at least 80% disease control in this test when compared to untreated control leaf disks under the same conditions, which show extensive disease development.

[3] = system: Puccinia recondita f. Sp. Tritici; experiment: Fungicidal activity against Puccinia recondita f. sp. tritici / wheat / leaf disc preventative (brown rust); assay type: in vivo; details: foliar, 200 ppm in the applied formulation, wheat leaf segments cv. Kanzler, preventative (inoculated 1 day after application), assessed 7 to 9 days after application, compared to untreated, read-out: disease control
Protocol: Leaf disks or leaf segments of various plant species are cut from plants grown in a greenhouse. The cut leaf disks or segments are placed in multiwell plates (24-well format) onto water agar. The leaf disks are sprayed with a test solution before (preventative) or after (curative) inoculation. Compounds to be tested are prepared as DMSO solutions (max. 10 mg/ml) which are diluted to the appropriate concentration with 0.025% Tween20 just before spraying. The inoculated leaf disks or segments are incubated under defined conditions (temperature, relative humidity, light, etc.) according to the respective test system. A single evaluation of disease level is carried out 3 to 14 days after inoculation, depending on the pathosystem. Percent disease control relative to the untreated check leaf disks or segments is then calculated. Example 1: Fungicidal Activity Against Puccinia recondita f. Sp. Tritici/Wheat/Leaf Disc Preventative (Brown Rust) Wheat leaf segments cv. Kanzler were placed on agar in multiwell plates (24-well format) and sprayed with the formulated test compound diluted in water. The leaf disks were inoculated with a spore suspension of the fungus 1 day after application. The inoculated leaf segments were incubated at 19° C. and 75% relative humidity (rh) under a light regime of 12 hours light/12 hours darkness in a climate cabinet and the activity of a compound was assessed as percent disease control compared to untreated when an appropriate level of disease damage appears in untreated check leaf segments (7 to 9 days after application). The following compounds at 200 ppm in the applied formulation give at least 80% disease control in this test when compared to untreated control leaf disks under the same conditions, which show extensive disease development.

Phakopsora pachyrhizi = experiment: Fungicidal activity against Phakopsora pachyrhizi / soybean / leaf disc preventative (Asian soybean rust); assay type: in vivo; details: foliar, 200 ppm in the applied formulation, soybean leaf disks, preventative (inoculated one day after application), assessed 12 to 14 days after application, compared to untreated, read-out: disease control
Protocol: Leaf disks or leaf segments of various plant species are cut from plants grown in a greenhouse. The cut leaf disks or segments are placed in multiwell plates (24-well format) onto water agar. The leaf disks are sprayed with a test solution before (preventative) or after (curative) inoculation. Compounds to be tested are prepared as DMSO solutions (max. 10 mg/ml) which are diluted to the appropriate concentration with 0.025% Tween20 just before spraying. The inoculated leaf disks or segments are incubated under defined conditions (temperature, relative humidity, light, etc.) according to the respective test system. A single evaluation of disease level is carried out 3 to 14 days after inoculation, depending on the pathosystem. Percent disease control relative to the untreated check leaf disks or segments is then calculated. Example 3: Fungicidal Activity Against Phakopsora pachyrhizi/Soybean/Leaf Disc Preventative (Asian Soybean Rust) Soybean leaf disks are placed on water agar in multiwell plates (24-well format) and sprayed with the formulated test compound diluted in water. One day after application leaf discs are inoculated by spraying a spore suspension on the lower leaf surface. After an incubation period in a climate cabinet of 24-36 hours in darkness at 20° C. and 75% rh leaf disc are kept at 20° C. with 12 h light/day and 75% rh. The activity of a compound is assessed as percent disease control compared to untreated when an appropriate level of disease damage appears in untreated check leaf disks (12 to 14 days after application). The following compounds at 200 ppm in the applied formulation give at least 80% disease control in this test when compared to untreated control leaf disks under the same conditions, which show extensive disease development.

CN(C(=O)c1ccc(-c2noc(C(F)(F)F)n2)c(F)c1)C1CCN(C(=O)OC(C)(C)C)C1 (stereo not drawn) [Compound 1.2, tert-butyl 3-[[3-fluoro-4-[5-(trifluoromethyl)-1,2,4-oxadiazol-3-yl]benzoyl]-methyl-amino]pyrrolidine-1-carboxylate]
≥ 80%: inhibition of growth at 20 ppm [1] | pest or weed control at 100 ppm (Uromyces viciae-fabael) | pest or weed control at 200 ppm [2] | pest or weed control at 200 ppm [3]

COc1ccc2[nH]cc(CCNC(=O)c3ccc(-c4noc(C(F)(F)F)n4)c(F)c3)c2c1 [Compound 1.4, 3-fluoro-N-[2-(5-methoxy-1H-indol-3-yl)ethyl]-4-[5-(trifluoromethyl)-1,2,4-oxadiazol-3-yl]benzamide]
≥ 80%: pest or weed control at 200 ppm (Phakopsora pachyrhizi) | inhibition of growth at 20 ppm [1] | pest or weed control at 100 ppm (Uromyces viciae-fabael) | pest or weed control at 200 ppm [3]

CN(C(=O)c1ccc(-c2noc(C(F)(F)F)n2)c(F)c1)c1ccccn1 [Compound 1.5, 3-fluoro-N-methyl-N-(2-pyridyl)-4-[5-(trifluoromethyl)-1,2,4-oxadiazol-3-yl]benzamide]
≥ 80%: inhibition of growth at 20 ppm [1] | pest or weed control at 200 ppm [2] | pest or weed control at 200 ppm [3]

CSCCCNC(=O)c1ccc(-c2noc(C(F)(F)F)n2)c(F)c1 [Compound 1.6, 3-fluoro-N-(3-methylsulfanyl-propyl)-4-[5-(trifluoromethyl)-1,2,4-oxadiazol-3-yl]benzamide]
≥ 80%: pest or weed control at 100 ppm (Uromyces viciae-fabael) | pest or weed control at 200 ppm [2] | pest or weed control at 200 ppm [3]

C#CC1(NC(=O)c2ccc(-c3noc(C(F)(F)F)n3)c(F)c2)CCCCC1 [Compound 1.8, N-(1-ethynylcyclohexyl)-3-fluoro-4-[5-(trifluoromethyl)-1,2,4-oxadiazol-3-yl]benzamide]
≥ 80%: pest or weed control at 200 ppm (Phakopsora pachyrhizi) | inhibition of growth at 20 ppm [1] | pest or weed control at 100 ppm (Uromyces viciae-fabael) | pest or weed control at 200 ppm [3]

O=C(NCCSCc1ccc(Cl)nc1)c1ccc(-c2noc(C(F)(F)F)n2)c(F)c1 [Compound 1.10, N-[2-[(6-chloro-3-pyridyl)methyl-sulfanyl]ethyl]-3-fluoro-4-[5-(trifluoromethyl)-1,2,4-oxadiazol-3-yl]benzamide]
≥ 80%: pest or weed control at 200 ppm (Phakopsora pachyrhizi) | inhibition of growth at 20 ppm [1] | pest or weed control at 100 ppm (Uromyces viciae-fabael) | pest or weed control at 200 ppm [3]

COC(=O)C1(NC(=O)c2ccc(-c3noc(C(F)(F)F)n3)c(F)c2)CCN(OC)CC1 [Compound 1.13, methyl 4-[[3-fluoro-4-[5-(trifluoromethyl)-1,2,4-oxadiazol-3-yl]benzoyl]amino]-1-methoxy-piperidine-4-carboxylate]
≥ 80%: pest or weed control at 100 ppm (Uromyces viciae-fabael) | pest or weed control at 200 ppm [2] | pest or weed control at 200 ppm [3]

CC(C)(CS(C)(=O)=O)NC(=O)c1ccc(-c2noc(C(F)(F)F)n2)c(F)c1 [Compound 1.22, N-(1,1-dimethyl-2-methylsulfonyl-ethyl)-3-fluoro-4-[5-(trifluoromethyl)-1,2,4-oxadiazol-3-yl]benzamide]
≥ 80%: pest or weed control at 100 ppm (Uromyces viciae-fabael) | pest or weed control at 200 ppm [2] | pest or weed control at 200 ppm [3]

O=C(NCC1CC(F)(F)C1(F)F)c1ccc(-c2noc(C(F)(F)F)n2)c(F)c1 (stereo not drawn) [Compound 1.23, 3-fluoro-N-[(2,2,3,3-tetrafluoro-cyclobutyl)methyl]-4-[5-(trifluoromethyl)-1,2,4-oxadiazol-3-yl]benzamide]
≥ 80%: pest or weed control at 200 ppm (Phakopsora pachyrhizi) | inhibition of growth at 20 ppm [1] | pest or weed control at 100 ppm (Uromyces viciae-fabael) | pest or weed control at 200 ppm [3]

CC(C)CC(C)NC(=O)c1ccc(-c2noc(C(F)(F)F)n2)c(F)c1 (stereo not drawn) [Compound 1.38, N-(1,3-dimethylbutyl)-3-fluoro-4-[5-(trifluoromethyl)-1,2,4-oxadiazol-3-yl]benzamide]
≥ 80%: pest or weed control at 200 ppm (Phakopsora pachyrhizi) | inhibition of growth at 20 ppm [1] | pest or weed control at 100 ppm (Uromyces viciae-fabael) | pest or weed control at 200 ppm [3]

O=C(Nc1nccnn1)c1ccc(-c2noc(C(F)(F)F)n2)c(F)c1 [Compound 1.42, 3-fluoro-N-(1,2,4-triazin-3-yl)-4-[5-(trifluoromethyl)-1,2,4-oxadiazol-3-yl]benzamide]
≥ 80%: inhibition of growth at 20 ppm [1] | pest or weed control at 200 ppm [2] | pest or weed control at 200 ppm [3]
